This note sets out measurements from patent publication US8735414B2 (priority 2009, dated 2014).

A word on the IC50: it is the midpoint of a concentration-inhibition curve. In general, melting point refers to the temperature of the solid-liquid transition.

The subject of series [1] is bicistronic HCV replicon (replicon RNA, GenBank Accession No. AJ242654). The series is described as follows: HCV Replicon Assay. Conditions: Hepatitis C virus, 72 h, read-out: Replicon IC50. It counts as cell-based. (Replicon systems follow genome replication, usually without infectious particles.)

In turn, `Cc1cc2c(cc1Cl)c(C(N)=O)c(-c1ccc(S(=O)(=O)N[C@H](C)C(F)(F)F)cn1)n2C1CCC1` [compound 735, 5-chloro-1-cyclobutyl-6-methyl-2-(5-{[(2R)-1,1,1-trifluoropropan-2-yl]sulfamoyl}pyridin-2-yl)-1H-indole-3-carboxamide] yielded a melting point of 208 to 210 °C. For the same compound, the half-inhibitory concentration (IC50) in series [1] is below 500 nM.
For `C[C@H](NS(=O)(=O)c1ccc(-c2c(C(N)=O)c3cc(F)c(Cl)cc3n2C2CCC2)nc1)C(F)(F)F` [compound 736, 6-chloro-1-cyclobutyl-5-fluoro-2-(5-{[(2S)-1,1,1-trifluoropropan-2-yl]sulfamoyl}pyridin-2-yl)-1H-indole-3-carboxamide] the same measures were 241 to 243 °C and below 500 nM.
In the same order, the values of `Cc1cc2c(cc1F)c(C(N)=O)c(-c1ccc(S(=O)(=O)N[C@@H](C)C(F)(F)F)cn1)n2C1CCC1` [compound 737, 1-cyclobutyl-5-fluoro-6-methyl-2-(5-{[(2S)-1,1,1-trifluoropropan-2-yl]sulfamoyl}pyridin-2-yl)-1H-indole-3-carboxamide] are 190 to 194 °C and below 500 nM.
`CC[C@H](NS(=O)(=O)c1ccc(-c2c(C#N)c3cc(F)c(OC(F)F)cc3n2C2CCC2)nc1)C(F)(F)F` [compound 738, 6-[3-cyano-1-cyclobutyl-6-(difluoromethoxy)-5-fluoro-1H-indol-2-yl]-N-[(2S)-1,1,1-trifluorobutan-2-yl]pyridine-3-sulfonamide]: the melting point was in the range of 166 to 173 °C. Also, the IC50 in series [1] was below 500 nM.
Compound `Cc1cc2c(cc1F)c(C#N)c(-c1ccc(S(=O)(=O)N[C@@H](C)C(F)(F)F)cn1)n2-c1ncccc1C` [compound 739, 6-[3-cyano-5-fluoro-6-methyl-1-(3-methylpyridin-2-yl)-1H-indol-2-yl]-N-[(2S)-1,1,1-trifluoropropan-2-yl]pyridine-3-sulfonamide] returned a melting point of 219 to 221 °C. The IC50 in series [1] is below 500 nM.
In the same order, the values of `Cc1cc2c(cc1F)c(C#N)c(-c1ccc(S(=O)(=O)N[C@@H](C)C(F)(F)F)cn1)n2-c1ccc(C(F)(F)F)cn1` [compound 740, 6-{3-cyano-5-fluoro-6-methyl-1-[5-(trifluoromethyl)pyridin-2-yl]-1H-indol-2-yl}-N-[(2S)-1,1,1-trifluoropropan-2-yl]pyridine-3-sulfonamide] are 253 to 255 °C and below 500 nM.
For `C[C@H](NS(=O)(=O)c1ccc(-c2c(C(=O)O)c3cc(F)ccc3n2C2CCCCC2)nc1)C(F)(F)F` [compound 741, 1-cyclohexyl-5-fluoro-2-(5-{[(2S)-1,1,1-trifluoropropan-2-yl]sulfamoyl}pyridin-2-yl)-1H-indole-3-carboxylic acid] the same measures were 216 to 220 °C and 500 to 2000 nM.
In turn, `Cc1cc2c(cc1F)c(C#N)c(-c1ccc(S(=O)(=O)N[C@@H](C)C(F)(F)F)cn1)n2-c1ccc(C#N)cn1` [compound 743, 6-[3-cyano-1-(5-cyanopyridin-2-yl)-5-fluoro-6-methyl-1H-indol-2-yl]-N-[(2S)-1,1,1-trifluoropropan-2-yl]pyridine-3-sulfonamide] showed a melting point of 276 to 277 °C. Further, the IC50 in series [1] is below 500 nM.
`Cc1cc2c(cc1F)c(C#N)c(-c1ccc(S(=O)(=O)N[C@@H](C)C(F)(F)F)cn1)n2-c1ccc([N+](=O)[O-])cn1` [compound 744, 6-[3-cyano-5-fluoro-6-methyl-1-(5-nitropyridin-2-yl)-1H-indol-2-yl]-N-[(2S)-1,1,1-trifluoropropan-2-yl]pyridine-3-sulfonamide] yielded a melting point of 260 to 263 °C. Further, in series [1], the IC50 is below 500 nM.
In the same order, the values of `CC(C)NS(=O)(=O)c1cnc(-c2c(C(N)=O)c3cc(Cl)ccc3n2C2CCC2)nc1` [compound 745, 5-chloro-1-cyclobutyl-2-[5-(propan-2-ylsulfamoyl)pyrimidin-2-yl]-1H-indole-3-carboxamide] are 245 to 247 °C and below 500 nM.
